From US10034886B2, “GLP-1 receptor modulators” (Celgene International II SÀRL, priority 2014, dated 2018) come the findings set out here.

Molecules are shown by their SMILES.

One may read the EC50 as the concentration that produces a half-maximal response.

T1 sequence (P43220 24-463): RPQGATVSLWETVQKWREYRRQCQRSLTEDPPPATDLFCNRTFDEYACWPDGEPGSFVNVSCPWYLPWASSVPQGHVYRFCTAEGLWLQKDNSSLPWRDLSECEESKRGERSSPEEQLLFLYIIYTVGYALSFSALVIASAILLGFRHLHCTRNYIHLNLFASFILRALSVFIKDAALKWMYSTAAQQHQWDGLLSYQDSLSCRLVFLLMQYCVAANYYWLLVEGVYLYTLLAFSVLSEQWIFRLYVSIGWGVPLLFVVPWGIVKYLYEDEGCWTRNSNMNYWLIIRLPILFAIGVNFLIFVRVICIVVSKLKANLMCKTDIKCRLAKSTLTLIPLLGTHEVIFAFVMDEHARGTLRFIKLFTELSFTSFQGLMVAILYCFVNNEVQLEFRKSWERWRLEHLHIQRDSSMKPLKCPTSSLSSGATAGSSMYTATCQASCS
T1 sequence (P01275 100-127 partner limits assumed): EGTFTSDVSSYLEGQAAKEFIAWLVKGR

This experiment has as its target T1, GLP-1R (Homo sapiens, UniProt P43220).
T1 construct: host or cells: GLP-1R CRE-bla CHO-K1 cells
Put plainly: EC20 GLP-1(9-36) PAM cAMP assay: dose response of compound in the presence of fixed concentration of GLP-1(9-36). The format is cell-based. The conditions noted are these: dose response of compound in presence of fixed concentration of GLP-1(9-36), GLP-1R CRE-bla CHO-K1 cells, read-out: EC20 GLP-1(9-36) PAM EC50. The essentials:
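Positive allosteric modulation read as cAMP accumulation: compound titrations (12 points) combined with an EC20 level of GLP-1(9-36) on CHO-K1 GLP-1R CRE-bla cells, IBMX present, 30 min, 37 °C, pH 7.4 buffer. Luminescence converted to cAMP via standards; non-linear fit gave EC50 and Emax.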
A general note: cAMP levels reflect the balance of adenylyl cyclase and phosphodiesterase activity.
As to `CCCCCCCOc1ccc(-c2cnc(-c3ccc(C[C@H](NC(=O)c4ccc(C(C)(C)C)cc4)C(=O)N4CCC4C(=O)O)cc3)nc2)cc1` (stereo partly shown) [Compound 565], the EC50 was 800 to 2500 nM.

For the compound `CCCCCCCOc1ccc(-c2cnc(-c3ccc(C[C@H](NC(=O)c4ccc(C(C)(C)C)cc4)C(=O)NC(C(=O)O)c4cccc(OC)c4)cc3)nc2)cc1` (stereo partly shown) [Compound 566], the EC50 was less than 800 nM.

As for `CCCCCCCOc1ccc(-c2cnc(-c3ccc(C[C@H](NC(=O)c4ccc(C(C)(C)C)cc4)C(=O)N4C[C@H](O)C[C@H]4C(=O)O)cc3)nc2)cc1` [Compound 567], the EC50 is less than 800 nM.

On to `CCCCCCCOc1ccc(-c2cnc(-c3ccc(C[C@H](NC(=O)c4ccc(C(C)(C)C)cc4)C(=O)NC(Cc4ccc(OC)cc4)C(=O)O)cc3)nc2)cc1` (stereo partly shown) [Compound 568], for which the concentration giving a half-maximal response (EC50) was less than 800 nM.

As for `CCCCCCCOc1ccc(-c2cnc(-c3ccc(C[C@H](NC(=O)c4ccc(C(C)(C)C)cc4)C(=O)NC(C(=O)O)C(O)c4ccccc4)cc3)nc2)cc1` (stereo partly shown) [Compound 569], the concentration giving a half-maximal response (EC50) was less than 800 nM.

`CCCCCCCOc1ccc(-c2cnc(-c3ccc(C[C@H](NC(=O)c4ccc(C(C)(C)C)cc4)C(=O)NC(C(=O)O)C(O)c4ccccc4)cc3)nc2)cc1` (stereo partly shown) [Compound 570]: the half-maximal effective concentration (EC50) was less than 800 nM.

Turning to `CCCCCCCOc1ccc(-c2cnc(-c3ccc(C[C@H](NC(=O)c4ccc(C(C)(C)C)cc4)C(=O)NC(CC(=O)O)c4cccnc4)cc3)nc2)cc1` (stereo partly shown) [Compound 571], the EC50 was 800 to 2500 nM.

Consider `CCCCCCCOc1ccc(-c2cnc(-c3ccc(C[C@H](NC(=O)c4ccc(C(C)(C)C)cc4)C(=O)NCc4ccc(C(=O)O)o4)cc3)nc2)cc1` [Compound 572], for which the half-maximal effective concentration (EC50) lay within 800 to 2500 nM.

`CCCCCCCOc1ccc(-c2cnc(-c3ccc(C[C@H](NC(=O)c4ccc(C(C)(C)C)cc4)C(=O)NC(CCCC(=O)O)C(=O)O)cc3)nc2)cc1` (stereo partly shown) [Compound 573]: the EC50 was in the range of 800 to 2500 nM.

As to `CCCCCCCOc1ccc(-c2cnc(-c3ccc(C[C@H](NC(=O)c4ccc(C(C)(C)C)cc4)C(=O)NC(C(=O)O)C(C)c4ccccc4)cc3)nc2)cc1` (stereo partly shown) [Compound 574], the EC50 was in the range of 800 to 2500 nM.

In the case of `CCCCCCCOc1ccc(-c2cnc(-c3ccc(C[C@H](NC(=O)c4ccc(C(C)(C)C)cc4)C(=O)N[C@H](CCCNC(=O)OCc4ccccc4)C(=O)O)cc3)nc2)cc1` [Compound 575], the concentration giving a half-maximal response (EC50) lay in the range of 2500 to 5000 nM.

`CCCCCCCOc1ccc(-c2cnc(-c3ccc(C[C@H](NC(=O)c4ccc(C(C)(C)C)cc4)C(=O)N[C@@H](Cc4cnn(C)c4)C(=O)O)cc3)nc2)cc1` [Compound 576]: the 50% effective concentration (EC50) lay within 800 to 2500 nM.

Take `CCCCCCCOc1ccc(-c2cnc(-c3ccc(C[C@H](NC(=O)c4ccc(C(C)(C)C)cc4)C(=O)N[C@@H](CC4CCCNC4)C(=O)O)cc3)nc2)cc1` (stereo partly shown) [Compound 577]: the EC50 fell in the range of 2500 to 5000 nM.

As to `CCCCCCCOc1ccc(-c2cnc(-c3ccc(C[C@H](NC(=O)c4ccc(C(C)(C)C)cc4)C(=O)N4CCC(C(=O)O)CC4)cc3)nc2)cc1` [Compound 578], the half-maximal effective concentration (EC50) was 2500 to 5000 nM.

As to `CCCCCCCOc1ccc(-c2cnc(-c3ccc(C[C@H](NC(=O)c4ccc(C(C)(C)C)cc4)C(=O)N[C@@H](CC(=O)O)C(N)=O)cc3)nc2)cc1` [Compound 579], the concentration giving a half-maximal response (EC50) is less than 800 nM.

As for `CCCCCCCOc1ccc(-c2cnc(-c3ccc(C[C@H](NC(=O)c4ccc(C(C)(C)C)cc4)C(=O)N[C@@H](CC(=O)O)C(=O)NC)cc3)nc2)cc1` [Compound 580], the 50% effective concentration (EC50) was less than 800 nM.

Consider `CCCCCCCOc1ccc(-c2cnc(-c3ccc(C[C@H](NC(=O)c4ccc(C(C)(C)C)cc4)C(=O)NC(CC(=O)O)c4ccccc4O)cc3)nc2)cc1` (stereo partly shown) [Compound 581], for which the EC50 was 800 to 2500 nM.

In the case of `CCCCCCCOc1ccc(-c2cnc(-c3ccc(C[C@H](NC(=O)c4ccc(C(C)(C)C)cc4)C(=O)N4CC[C@H](N)[C@@H](C(=O)O)C4)cc3)nc2)cc1` [Compound 582], the half-maximal effective concentration (EC50) fell in the range of 800 to 2500 nM.

In the case of `CCCCCCCOc1ccc(-c2cnc(-c3ccc(C[C@H](NC(=O)c4ccc(C(C)(C)C)cc4)C(=O)N4CCC[C@@H](C(=O)O)[C@H]4C)cc3)nc2)cc1` [Compound 583], the EC50 is 5000 to 10000 nM.
